The term Km denotes the substrate concentration at which the rate is half of its maximum.

One series addresses T1, Psy-Lig (Psychromonas sp. SP041, UniProt A0ACD6BAT9).
T1 construct: mature protein, 40-residue periplasmic leader removed (cleavage Ala40/Gln41), 257 residues; N-terminal His tag and TEV site, vector pHMGWA, expressed in E. coli; pre-adenylated with ATP; SeMet form crystallised
Kind of series: X-ray crystal structure, […] Å (SeMet protein). The series is classed as binding. Particulars: covalent; phosphoamide bond to Lys25 side chain (mature numbering), enzyme-adenylate intermediate formed from ATP; active site.

Substrate in series [1]: Nc1ncnc2c1ncn2[C@@H]1O[C@H](COP(=O)(O)OP(=O)(O)OP(=O)(O)O)[C@@H](O)[C@H]1O
Nature of the series: molecular beacon fluorescence nick-sealing assay, Michaelis-Menten fit. The series is classed as biochemical, Psychromonas sp. SP041. Particulars: 300 nM nicked ds-DNA beacon, 2.0 nM enzyme, 10 mM MgCl2, 100 mM NaCl, 1 mM DTT, 50 mM Tris pH 8.0, 30 °C, ATP 0-50 µM.

In the case of `Nc1ncnc2c1ncn2[C@@H]1O[C@H](COP(=O)(O)O)[C@@H](O)[C@H]1O` [AMP], on Psy-Lig, the “X-ray crystal structure, 1.65 Å (SeMet protein)” value is reported as “AMP bound in the active site was clear in the observed electron density, covalently linked”.

B1: Psy-Lig (Psychromonas sp. SP041) (protein)
chain: QPPPIQLATNYRQDIDVTQYYVSEKLDGIRAYWNGHQLISKQGNIFTAPTWFIASFPTTAMDGELWIARQQFETVSGIARTQDNQNEQWKQIKFMIFDLPKSTVSFEQRINKMQTLVTDTNSPYLQMIEQQKIPNTVALFDLLNKVVMGKGEGLMLHHQDALYQTKRSRDLMKLKKFEDAEATVIAYLPGKGKYEGLLGAILVKNEEGVTFKIGSGFSDEERSTPPPIGSLITYRFTGKTNNNIPRFASFVRIRVIY
notes: mature protein, 40-residue periplasmic leader removed (cleavage Ala40/Gln41), 257 residues; N-terminal His tag and TEV site, vector pHMGWA, expressed in E. coli; pre-adenylated with ATP; SeMet form crystallised
Take B1: in series [1], the Km came to 3.8 ± 0.7 µM.

These data come from publication PMC4220977, “Enzyme–adenylate structure of a bacterial ATP-dependent DNA ligase with a minimized DNA-binding surface” (Acta Crystallographica Section D: Biological Crystallography, 2014).
